Assay results: patent publication US11247970B2, “Selective inhibition of gluconeogenic activity” (Dana-Farber Cancer Institute, Inc., priority 2017, dated 2022)
“Also recorded” adds a separate entry of the source.

Experiments:
GCN5 = target: T1, GCN5 (Homo sapiens, UniProt Q92830); experiment: GCN5 HAT activity assay; type: biochemical; details: H3 peptide
T1 construct: made in house; host or cells: U-2 OS cells overexpressing Ad-GCN5; FLAG immunoprecipitation, elution with 3×FLAG peptide
Procedure: For determination of GCN5 HAT activity U-2 OS cells overexpressing Ad-GCN5 were treated with SR-18292 ([…]) for 18 h. Cells were lysed with buffer B (20 mM HEPES-KOH (pH 7.9), 125 mM NaCl, 1 mM EDTA, 1 mM DTT, 1% IGEPAL (v/v), 10% glycerol (v/v), 5 mM NaF, 5 mM β-glycerophosphate, 5 mM sodium butyrate and 10 mM nicotinamide), supplemented with Protease Inhibitor Cocktail. FLAG-GCN5 was immunoprecipitated with FLAG beads overnight at 4° C. following multiple washes with lysis buffer. GCN5 was then eluted using 3×FLAG peptide and the purified protein was used to determine HAT activity using the HAT Inhibitor Screening Assay Kit (Cayman Chemicals) per manufacturer instructions. To determine the potential effect of SR-18292 on GCN5 activity in vitro, GCN5 was purified from U-2 OS cells in a similar manner but without treatment with SR-18292.

HFD fed mice = experiment: Fasting blood glucose in HFD fed mice; type: in vivo; details: 45 mg/kg I.P., 3 days and again day 4
Procedure: All mice were purchased from Jackson laboratories and housed under a 12 h light/12 h dark cycle at 22° C. Before handling, mice were allowed to acclimate for at least 1 week in our animal facility. For in vivo studies with DIO mice, males 6-8 weeks old were fed HFD for the indicated time. […] Metformin was re-suspended in the same solution at a 20 mg/ml concentration. […] Metformin was administered via oral gavage. […] Glycemia was measured by tail bleed using a glucometer (OneTouch). For all experiments, age- and body weight-matched animals were used.
Therefore, blood glucose was measured in the fasted state during which the liver plays a major role maintaining glycemia. […] A high fat diet (HFD) fed mice, a dietary model of obesity and T2D, were used.

PGC-1α = target: T2, PGC-1α (Mus musculus, UniProt O70343); experiment: Mass spectrometry of acetylated PGC-1α lysine residues; type: cell-based; set-up: expressed in transfected cells; host or cells: U-2 OS cells infected with Ad-PGC-1α and Ad-GCN5; details: U-2 OS, Ad-PGC-1α and Ad-GCN5, 18 h
T2 sequence (O70343 1-797): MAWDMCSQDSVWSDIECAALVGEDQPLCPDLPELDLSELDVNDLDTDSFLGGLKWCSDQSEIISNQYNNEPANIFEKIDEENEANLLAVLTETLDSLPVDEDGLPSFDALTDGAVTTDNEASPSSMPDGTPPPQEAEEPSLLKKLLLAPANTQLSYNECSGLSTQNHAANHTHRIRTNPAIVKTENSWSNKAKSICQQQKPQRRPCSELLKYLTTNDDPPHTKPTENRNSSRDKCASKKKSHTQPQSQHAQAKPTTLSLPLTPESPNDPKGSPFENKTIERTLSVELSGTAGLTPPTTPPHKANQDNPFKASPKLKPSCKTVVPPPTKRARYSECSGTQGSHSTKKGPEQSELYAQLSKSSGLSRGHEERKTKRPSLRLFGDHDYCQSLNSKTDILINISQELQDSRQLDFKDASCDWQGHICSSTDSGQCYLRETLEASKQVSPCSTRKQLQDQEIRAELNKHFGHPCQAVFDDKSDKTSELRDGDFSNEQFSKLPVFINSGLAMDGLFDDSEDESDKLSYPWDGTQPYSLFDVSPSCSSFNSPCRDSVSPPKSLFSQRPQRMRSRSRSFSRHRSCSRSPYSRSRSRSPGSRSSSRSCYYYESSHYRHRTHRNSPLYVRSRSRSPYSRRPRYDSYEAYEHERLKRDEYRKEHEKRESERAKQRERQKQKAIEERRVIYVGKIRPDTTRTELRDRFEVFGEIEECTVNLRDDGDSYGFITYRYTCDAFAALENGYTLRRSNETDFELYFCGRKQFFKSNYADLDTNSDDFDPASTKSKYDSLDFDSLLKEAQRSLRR
Procedure: Gel bands were dehydrated with acetonitrile, dried and resuspended in 50 mM ammonium bicarbonate (pH 8.0) containing 500 ng of sequencing-grade trypsin (Promega) and incubated at 37° C. for 8 hours. Digested samples were then loaded onto StageTips and desalted. Peptides were eluted with 50% acetonitrile, 5% formic acid, dried using a Speed-Vac apparatus, and resuspended in 25 μl of HEPES, pH 8.5. Peptides were labeled with 6-plex tandem mass tag (TMT) reagents (Thermo Scientific, Rockford, Ill.). After 1 hour of incubation at room temperature, the reaction was quenched with hydroxylamine and acidification with formic acid to pH˜2. TMT labeled peptides were combined, desalted by StageTips, dried and resuspended in 10 μl of 1% formic acid. All spectra were acquired using an Oribtrap Fusion mass spectrometer (Thermo Scientific) in line with an Easy-nLC 1200 (Thermo Fisher Scientific) ultra-high pressure liquid chromatography (UHPLC) pump. […] For MS3 based TMT quantitation, MS2 spectra were collected at an AGC of 4000, max injection time of 150 ms, and CID collision energy set at 35%. […] For quantification, a 0.03 m/z window centered on the theoretical DA value of each reporter ion was utilized for the nearest maximal signal intensity. […]

T1 sequence (Q92830 whole entry, species assumed): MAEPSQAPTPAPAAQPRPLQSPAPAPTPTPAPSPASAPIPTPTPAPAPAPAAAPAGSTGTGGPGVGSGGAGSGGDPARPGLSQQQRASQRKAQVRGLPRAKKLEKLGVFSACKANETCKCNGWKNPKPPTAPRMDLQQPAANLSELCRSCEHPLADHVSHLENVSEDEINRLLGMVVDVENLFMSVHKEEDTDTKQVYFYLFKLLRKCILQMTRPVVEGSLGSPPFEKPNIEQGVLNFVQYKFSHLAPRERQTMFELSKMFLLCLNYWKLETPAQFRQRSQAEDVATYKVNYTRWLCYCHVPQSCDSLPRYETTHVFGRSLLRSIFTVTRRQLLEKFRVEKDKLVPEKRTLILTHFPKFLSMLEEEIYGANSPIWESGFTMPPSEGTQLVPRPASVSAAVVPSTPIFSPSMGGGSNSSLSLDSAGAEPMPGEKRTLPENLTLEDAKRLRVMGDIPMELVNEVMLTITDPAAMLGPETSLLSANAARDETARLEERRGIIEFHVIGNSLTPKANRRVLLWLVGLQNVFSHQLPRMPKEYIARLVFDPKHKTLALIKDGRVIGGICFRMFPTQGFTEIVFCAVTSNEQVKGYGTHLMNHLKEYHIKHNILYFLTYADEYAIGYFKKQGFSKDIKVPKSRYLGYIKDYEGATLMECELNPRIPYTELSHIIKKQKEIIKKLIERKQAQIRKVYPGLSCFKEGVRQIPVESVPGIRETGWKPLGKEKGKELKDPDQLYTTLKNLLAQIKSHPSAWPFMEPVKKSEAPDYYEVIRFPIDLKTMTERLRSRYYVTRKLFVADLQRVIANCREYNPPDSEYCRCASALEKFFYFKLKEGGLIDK

Question: Which “catalytic (HAT) activity of GCN5 immunoprecipitated from treated cells” value (GCN5; U-2 OS cells treated 18 h) does the source give for `Cc1ccc(CN(CC(O)COc2cccc3[nH]ccc23)C(C)(C)C)cc1` (stereo not shown) [SR-18292, 1-((1H-indol-4-yl)oxy)-3-(tert-butyl(4-methylbenzyl)amino)propan-2-ol] here?
Answer: Its value is “not changed; also recorded: not increased”.

Question: What about the “GCN5 HAT activity on in vitro treatment of IPed GCN5” value (GCN5; in vitro treatment) of the same compound?
Answer: Its value is “did not result in increased activity; also recorded: not affected”.

Question: And the “fasting blood glucose vs vehicle” value (HFD fed mice)?
Answer: The value was “significantly lower”.

Question: What about the “number of PGC-1α lysine residues with increased acetylation” value (PGC-1α) of the same compound?
Answer: Its value is 7.
